Patent EP4268823A1, “COMPOUND FOR TREATING NEUROINFLAMMATION” (Universitätsklinikum Hamburg-Eppendorf, priority 2022, dated 2023)

What was measured:
[1] = test system: primary cortical cultures; assay: RealTime-Glo cell viability assay, glutamate excitotoxicity; assay type: cell-based, mouse; details: 20 µM glutamate-stimulated primary cortical cultures; UNC0642 1 µM pre-treated 24 hours
Description: For primary cortical cultures pregnant C57BL/6J, or G9afl/fl;Snap25-Cre mice were euthanized. To ensure comparability between genotypes, only embryos from heterozygous breeding's were used. Brainstem tissue of each embryo for genotyping was reserved and cortices were isolated, dissociated and cells were plated at a density of 1 × 10^5 cells per 1 cm^2 on poly-D-lysine-coated wells (5 µM Sigma-Aldrich, cat. no. A-003-M). If not stated otherwise, cells were maintained in neurobasal plus medium (supplemented with B27 plus, penicillin, streptomycin and L-glutamine; Gibco, cat. no. A3582901) at 37°C, 5% CO^2 and a relative humidity of 98%, and treated with 1 µM cytarabine (Sigma-Aldrich, cat. no. BP383) at 1 day in vitro (div) to inhibit glial cell proliferation. If no cytarabine was applied cells were maintained in PNBM medium (supplemented with neural cell survival factor, gentamycin and L-glutamine; Lonza). Throughout, cultures after 14-23 div were used for experiments. […]
RealTime-Glo (Promega, cat. no. G9711) MT cell viability substrate and NanoLuc Enzyme was mixed together, added to neuronal cultures and incubated for 5 hours for equilibration of luminescence signal before respective treatments were applied. Luminescence was acquired with a Spark 10M multimode microplate reader (Tecan) at 37°C and 5% CO2 every 30 min over a total time period of 24 hours. […]

G9a = biological target: T1, G9a (Mus musculus, UniProt Q9Z148); assay: H3K9me2 / G9a immunofluorescence staining in primary neuronal cultures; assay type: cell-based; details: for induction of H3K9me2 in response to glutamate: primary cortical cultures, glutamate toxicity
T1 construct: UNC0642 pre-treated primary neuronal cultures compared to respective controls; endogenous in cells; host or cells: primary mouse cortical neuronal cultures (C57BL/6J embryos)
T1 sequence (Q9Z148 1-1263): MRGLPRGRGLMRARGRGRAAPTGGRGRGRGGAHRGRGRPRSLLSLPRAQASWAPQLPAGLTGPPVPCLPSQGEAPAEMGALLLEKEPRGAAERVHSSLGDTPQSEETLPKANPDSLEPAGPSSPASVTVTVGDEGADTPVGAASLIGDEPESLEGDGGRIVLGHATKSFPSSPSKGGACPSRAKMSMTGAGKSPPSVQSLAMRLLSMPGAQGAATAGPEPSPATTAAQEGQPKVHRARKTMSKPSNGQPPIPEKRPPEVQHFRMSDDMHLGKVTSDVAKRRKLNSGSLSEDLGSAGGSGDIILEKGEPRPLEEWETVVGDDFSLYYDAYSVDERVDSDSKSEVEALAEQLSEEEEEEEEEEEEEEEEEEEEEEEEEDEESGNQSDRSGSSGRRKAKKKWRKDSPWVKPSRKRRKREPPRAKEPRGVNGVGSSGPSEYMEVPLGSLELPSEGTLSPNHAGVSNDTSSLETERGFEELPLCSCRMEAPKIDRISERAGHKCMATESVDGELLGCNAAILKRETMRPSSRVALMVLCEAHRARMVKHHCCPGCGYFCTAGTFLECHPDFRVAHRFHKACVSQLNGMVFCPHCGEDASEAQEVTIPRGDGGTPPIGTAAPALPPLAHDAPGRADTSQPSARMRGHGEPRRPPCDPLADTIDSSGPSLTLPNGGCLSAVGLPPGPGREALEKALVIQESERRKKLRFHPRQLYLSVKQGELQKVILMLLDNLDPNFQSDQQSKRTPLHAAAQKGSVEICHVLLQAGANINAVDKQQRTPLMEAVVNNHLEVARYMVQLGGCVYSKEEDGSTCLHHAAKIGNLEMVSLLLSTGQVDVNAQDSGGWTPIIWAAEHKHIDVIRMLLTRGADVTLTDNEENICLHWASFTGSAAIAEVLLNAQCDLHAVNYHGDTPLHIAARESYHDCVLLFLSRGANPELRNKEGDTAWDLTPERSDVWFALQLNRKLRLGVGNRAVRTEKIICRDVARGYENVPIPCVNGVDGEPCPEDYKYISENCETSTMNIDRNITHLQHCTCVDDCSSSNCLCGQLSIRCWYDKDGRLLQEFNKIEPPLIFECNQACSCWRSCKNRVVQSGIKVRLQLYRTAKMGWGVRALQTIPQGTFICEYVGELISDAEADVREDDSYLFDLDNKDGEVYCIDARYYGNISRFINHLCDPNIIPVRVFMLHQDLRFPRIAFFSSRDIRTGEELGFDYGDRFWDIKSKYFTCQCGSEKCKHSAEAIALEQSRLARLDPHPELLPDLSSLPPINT
Description: (§1) For primary cortical cultures pregnant C57BL/6J, or G9afl/fl;Snap25-Cre mice were euthanized. To ensure comparability between genotypes, only embryos from heterozygous breeding's were used. Brainstem tissue of each embryo for genotyping was reserved and cortices were isolated, dissociated and cells were plated at a density of 1 × 10^5 cells per 1 cm^2 on poly-D-lysine-coated wells (5 µM Sigma-Aldrich, cat. no. A-003-M). If not stated otherwise, cells were maintained in neurobasal plus medium (supplemented with B27 plus, penicillin, streptomycin and L-glutamine; Gibco, cat. no. A3582901) at 37°C, 5% CO^2 and a relative humidity of 98%, and treated with 1 µM cytarabine (Sigma-Aldrich, cat. no. BP383) at 1 day in vitro (div) to inhibit glial cell proliferation. If no cytarabine was applied cells were maintained in PNBM medium (supplemented with neural cell survival factor, gentamycin and L-glutamine; Lonza). Throughout, cultures after 14-23 div were used for experiments. G9a inhibitor UNC0642 was used in a concentration of 1 µM and cultures were pre-treated 24 hours before further experimental procedures.
Immunocytochemistry was performed as described previously (15). HiPSC-neurons and mouse neurons were cultivated on 12 mm diameter cover slips or on 96-well plates suited for confocal microscopy, fixed with 4% paraformaldehyde (PFA), incubated in 10% normal donkey's serum (NDS) containing 0.25% Triton X-100, and subsequently immunolabeling was performed. Immunostainings were analyzed with a Zeiss LSM 700 confocal microscope.

[2] = test system: primary neuronal cultures; assay: Cytosolic calcium imaging of glutamate-exposed neuronal cultures; assay type: cell-based, mouse; details: glutamate-exposed neuronal cultures; UNC0642 pre-treated 24 hours; ferrostatin-1 10 min prior to glutamate
Description: as §1
Primary neuronal cultures were seeded on Ibidi 60 µ-Dish Quad (cat. No. 80411) plates. Cultures were infected with an AAV7 containing pAAV-Syn-GCamp6f-WPRE-SV40 (86) (Addgene 100837) at 7-10 div with a 20,000-fold multiplicity of infection (MOI). AAV particles were produced according to the standard procedures of the UKE vector facility. Images were acquired with a confocal LSM 700 laser scanning confocal microscope (Zeiss) every 0.48 seconds with a 20× magnification in an imaging chamber maintaining 37 °C and 5% CO2. Infected cultures were imaged in the respective culture medium. Before applying the indicated chemicals, 5-10 min of baseline activity was first recorded. At the end of the recording, 8 µM ionomycin was applied to induce the maximum cellular calcium response that was used for normalization. For data analysis, mean fluorescence values of every cell were measured using Fiji software (NIH) and normalized to the maximal calcium response after ionomycin challenge. For each cell, mean AUC of the calcium response was calculated using a custom R script.

NC(CCCP(=O)(O)O)C(=O)O (stereo not shown) [AP5]
cell viability [1]: rescued cellular survival
induction of H3K9me2 in response to glutamate (G9a): potently suppressed the induction of H3K9me2

COC1=C(OC)C(=O)C(C/C=C(\C)CC/C=C(\C)CC/C=C(\C)CC/C=C(\C)CC/C=C(\C)CC/C=C(\C)CC/C=C(\C)CC/C=C(\C)CC/C=C(\C)CCC=C(C)C)=C(C)C1=O [coenzyme Q10]
toxic calcium accumulation (glutamate-induced calcium overload) [2]: rescued glutamate-induced calcium overload

COC(=O)c1ccc(C2c3[nH]c4ccccc4c3CC(C(=O)OC)N2C(=O)CCl)cc1 (stereo not shown) [RSL3]
H3K9me2 immunofluorescence after cell death induction (G9a; primary cortical neurons, inducer alone vs. control): significant upregulation of H3K9me2

O=C(O)CN(CCOCCOCCN(CC(=O)O)CC(=O)O)CC(=O)O [EGTA]
induction of H3K9me2 in response to glutamate (G9a): potently suppressed the induction of H3K9me2

NCCC[C@](N)(C(=O)O)C(F)F [DFMO, alpha-difluoro-methylornithine]
toxic calcium accumulation (glutamate-induced calcium overload) [2]: rescued glutamate-induced calcium overload

CCOC(=O)c1ccc(NC2CCCCC2)c(N)c1 [ferrostatin-1]
toxic calcium accumulation (glutamate-induced calcium overload) [2]: rescued glutamate-induced calcium overload
